# Assay results: patent US20050118603A1, “Target detection system having a conformationally sensitive probe comprising a nucleic acid based signal transducer” (Ahram Biosystems Inc., priority 2002, published 2005)
# {Fluorescein} = fluorescein attached by a linker
# T1: PKC probe UP10-23PKC (SEQ ID NO: 165), peptide KRTLRRC conjugated to the UP10-23A pre-probe
# T1 sequence: KRTLRRC
# B1: second probe: immobilized trimolecular affinity probe of Example 9: OB1-1B, CM1-4B and CM3* (nucleic acid)
# chain 1: ATGGAAGTATATGGAAGTATATGGAAGTATTCGTGGGGTTTTGCAGTCGTAG
# chain 2: GACTGCAAAACCCC
# chain 3: CTACGACTGCAA
# modifications: chain 1: DNA, backbone not given here; chain 2: DNA, backbone not given here; chain 3: DNA, 5' {Fluorescein}, backbone not given here; OB1-1B biotin at 5' first nucleotide, CM1-4B biotin ligand, further chemistry not fully specified
# Tests used:
# [1] = target: T2, streptavidin (Streptomyces avidinii, UniProt P22629); assay: Receptor-binding assay, temperature dependence of fluorescence signal of unimolecular probes (Examples 11-17); details: for relative increase of the fluorescence intensity (¼ molar equivalent of streptavidin divided by that without streptavidin): 25° C., 50 pmol probe
# T2 construct: purchased Pierce (IL, USA)
# Procedure: In order to perform receptor-binding assay, about 50 pmol of each unimolecular probe was mixed with 0, ⅛, and ¼ molar equivalent of streptavidin (0, 6.25, 12.5 pmol, respectively) in 50 μL of pH 8.5 10 mM Tris containing 50 mM KCl, […] well of a 96 well PCR plate (Bio-Rad, CA, USA). Note that ¼ molar equivalent of streptavidine corresponds to 1 molar equivalent of the biotin binding site in streptavidin with respect to the amount of the unmolecular probe used because streptavidin has 4 biotin binding sites. The assay solutions were then incubated for about 30 min at 60° C. The temperature dependence of the fluorescence signal from each well was measured with an iCycler iQ real time PCR machine purchased from Bio-Rad (CA, USA) using the melting profile protocol.
# The assay solutions for the unimolecular probes (50 pmol of each probe with 0, ⅛, and ¼ molar equivalent of streptavidin) were prepared in a 96 well PCR plates by the same procedure described in Example 11. As in Example 11, the temperature dependence of the fluorescence signal was measured with an iCycler iQ real time PCR machine.
# (§1) Again, the assay solutions for the above unimolecular probes (50 pmol of each probe with 0, ⅛, and ¼ molar equivalent of streptavidin) were prepared in a 96 well PCR plates by the same procedure described in Example 11, and the temperature dependence of the fluorescence signal was measured with an iCycler iQ real time PCR machine.
# as §1, with “above two” for “above”, “0” for “0, ⅛,”
# Assay solutions for the above unimolecular probe (50 pmol of each probe with 0 and ¼ molar equivalent of streptavidin) were prepared in a 96 well PCR plates by the same procedure described in Example 11, and the temperature dependence of the fluorescence signal was measured.
# Assay solutions for the above unimolecular probe (50 pmol of each probe with 0 and ¼ molar equivalent of streptavidin with total volume including the buffer solution being 50 μL) were prepared in a 96 well PCR plates using the following four buffer solutions: pH 6.0 10 mM MES containing 50 mM KCl, 2.5 mM MgCl2; pH 7.0 10 mM Tris containing 50 mM KCl, 2.5 mM MgCl2; pH 8.0 10 mM Tris containing 50 mM KCl, 2.5 mM MgCl2; and pH 9.0 10 mM Tris containing 50 mM KCl, […] The temperature dependence of the fluorescence signal from each well was measured with an iCycler iQ real time PCR machine.
# [2] = target: T2, streptavidin; assay: Unimolecular probe assay for streptavidin analysed by non-denaturing electrophoresis (Example 3); type: binding; details: in the presence of streptavidin; incubated in ice for an hour
# Excerpt: Two unimolecular affinity probes, UP1-34B (SEQ ID NO: 127) and UP2-6B/36B (SEQ ID NO: 128), having biotin as a probe ligand were used to detect a receptor agent, streptavidin (SA). The unimolecular affinity probe UP1 is depicted schematically in FIG. 18. UP1 has a biotin-coupled thymidine at the 34th position, and UP2 has two biotin-coupled thyrnidines at the 6th and 36th positions (see FIG. 23A for the structure of the biotin-coupled thymidine). Each unimolecular probe has an interactive label pair consisting of a fluorescer, fluorescein, and a quencher, DABCYL (4-(4′-dimethylaminophenylazo)benzoic acid), which are covalently linked to the 5′ and the 3′ terminus by a linker, respectively. The structures of the fluorescein and DABCYL with the linker are shown in FIGS. 23B and 23D, respectively. […] This causes decrease of the fluorescence intensity from the probe compared to the dissociated conformation in which the stem duplex is dissociated and thus the fluorescer moiety is located distal from the quencher moiety. […]
# Assay solutions were prepared according to the compositions summarized in Table 6, incubated in ice for an hour, and analyzed by electrophoresis. […] Dissociation of the stem duplexes due to the destabilization effect caused by the binding of the receptor agent is manifested by the increased fluorescence. […]
# [3] = test system: T1, PKC probe UP10-23PKC (SEQ ID NO: 165), peptide KRTLRRC conjugated to the UP10-23A pre-probe
# [4] = target: T2, streptavidin; assay: Inhibition of binding of the receptor agent to the probe ligand using unimolecular probe UP6-23B (Example 18); details: 12.5 pmol streptavidin, 50 pmol probe; background subtracted
# Procedure: Assay solutions for the inhibition test were prepared as follows. In each well of a 96 well PCR plate, 50 μL of 10 mM Tris, pH 8.5, 50 mM KCl, 2.5 mM MgCl2 containing 12.5 pmol of streptavidin and different amount of an inhibitor (biotin) was introduced and incubated for about 30 min at room temperature. About 50 pmol of the probe UP6-23B (SEQ ID NO: 141) was then added to each well and incubated for about 30 min at 60° C. before the fluorescence measurement.
# [5] = target: T2, streptavidin; assay: Immobilized trimolecular affinity probe assay for detecting streptavidin (Example 9); type: binding; details: upon addition of streptavidin, depending on amount added; CM3* fluorescence at 535 nm
# Excerpt: Two immobilized trimolecular affinity probes having a probe ligand (biotin) conjugated to the first complement sequence were used to detect streptavidin. One of the trimolecular probes used in this example is depicted schematically in FIG. 15. The first probe consists of an object oligonucleotide OB1-1B (SEQ ID NO: 135) comprising first and second object sequences, a first complement sequence CM2-4B (SEQ ID NO: 136) having a probe ligand, and a second complement sequence CM3* (SEQ ID NO: 131). The second probe consists of an object oligonucleotide OB1-1B (SEQ ID NO: 135), a first complement sequence CM1-4B (SEQ ID NO: 133) having a probe ligand, and a second complement sequence CM3* (SEQ ID NO: 131). The object oligonucleotide OB1-1B has a biotin covalently linked to the first nucleotide, adenosine in the 5′ end that is used to immobilize the object sequence (see FIG. 23E for the structure of the biotin-coupled abasic nucleotide). The second complement oligonucleotide CM3* has fluorescein as a fluorescent label at the 5′ terminal.
# The object oligonucleotide having a biotin residue in the 5′ terminal was immobilized to microwell plate wells coated with streptavidin. […] Fluorescence from the second complement oligonucleotide CM3* from each well was then measured at 535 nm using a microwell plate reader (GENios, TECAN, USA).
# [6] = pH 6.0, 7.0, 8.0, 9.0, without and with streptavidin
# T2 sequence (P22629 25-183): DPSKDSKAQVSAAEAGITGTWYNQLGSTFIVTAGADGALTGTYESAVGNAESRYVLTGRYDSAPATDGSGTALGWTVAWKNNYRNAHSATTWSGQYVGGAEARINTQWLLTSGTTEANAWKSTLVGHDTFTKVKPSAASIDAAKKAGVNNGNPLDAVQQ
molecule,measurement,setting,value
"UP10-13B: unimolecular probe (SEQ ID NO: 155), biotin in loop, 8th nucleotide from both ends of the loop region (GCAGCATCCTCATTACCCTAGCTGC; biotin in loop, hairpin stem-loop, further chemistry not given here)",response of the fluorescence signal of the unimolecular probe to addition of the receptor agent (conjugation position dependence),[1]; ¼ molar equivalent of streptavidin vs. none,did not work properly as a unimolecular probe
"UP6-23B: unimolecular probe (SEQ ID NO: 141), 15 nt loop, 5 bp stem, biotin, fluorescein/DABCYL (GCAGGATACTCATTACCATACCTGC; biotin, fluorescein and DABCYL, positions not given here, hairpin)",melting temperature,"[1]; absence of the receptor agent, 0 mM MgCl2",about 38 °C
same,melting temperature,"[1]; absence of the receptor agent, 5 mM MgCl2",about 58 °C
same,fluorescence intensity as a function of pH,[1]; [6],increases dramatically depending on the pH
same,melting temperature as a function of pH,[1]; [6],increases with pH
same,melting temperature,"[1]; presence of the receptor agent (¼ molar equivalent of streptavidin), 0 mM MgCl2",about 33 °C
same,melting temperature,"[1]; presence of the receptor agent (¼ molar equivalent of streptavidin), 5 mM MgCl2",about 45 °C
"UP14-21B: unimolecular probe (SEQ ID NO: 149), 4 bp stem duplex, biotin, fluorescein/DABCYL (GCAGATACTCATTACCATACTGC; biotin, fluorescein and DABCYL, positions not given here, hairpin)","relative increase of the fluorescence signal, compared between the 4 bp and 6 bp stem probes",[1]; upon addition of streptavidin,larger
"UP16-23B: unimolecular probe (SEQ ID NO: 151), stem and loop length as UP6-23B, different loop sequence with secondary 4 bp stem conformer (GCAGGACTCTCATTACACTGCCTGC; listed as DNA, chemistry not fully specified)",relative increase of the fluorescence intensity (¼ molar equivalent of streptavidin divided by that without streptavidin),[1],about 1.5
"UP1-34B: unimolecular affinity probe (SEQ ID NO: 127), biotin-thymidine at 34th position, fluorescein/DABCYL, 6 bp stem (GCAGCCTAGGAAACACCAAAGATGATATTTGGCTGC; listed as DNA, chemistry not fully specified)",melting temperature higher than that of the probe UP14-21B,[1]; 6 bp stem duplex vs 4 bp stem duplex,about 20 °C
same,fluorescence in the high mass region of the gel,[2],strongly enhanced fluorescence
PKC (Protein Kinase C),fluorescence signal of the PKC probe after the kinase reaction and addition of anti-phosphothreonine antibody,[3],a substantial increase of the fulorescence signal with respect to that measured with un-reacted PKC probe is observed in the absence of the inhibitor
"UP15-23B: unimolecular probe (SEQ ID NO: 150), stem and loop length as UP6-23B, different loop sequence with secondary 4 bp stem conformer (GCAGGATACTGCTTACCATACCTGC; biotin label, position not given here, hairpin)",relative increase of the fluorescence intensity (¼ molar equivalent of streptavidin divided by that without streptavidin),[1],about 3
"UP2-6B/36B: unimolecular affinity probe (SEQ ID NO: 128), biotin-thymidines at 6th and 36th positions, fluorescein/DABCYL, 7 bp stem (GCAGCTCTAGGAAACACCAAAGATGATATTTGAGCTGC; listed as DNA, chemistry not fully specified)",fluorescence in the high mass region of the gel,[2],strongly enhanced fluorescence
O=C(O)CCCC[C@@H]1SC[C@@H]2NC(=O)N[C@@H]21 [biotin],fluorescence intensity of UP6-23B as a function of inhibitor concentration,[4],decreases with increasing inhibitor concentration
B1,"increase of fluorescence intensity, normalized to intensity in the absence of the receptor agent",[5],2-3.5 fold
